Assay results as given in patent US9341616B2, “Sweet taste receptor chimeric proteins and use thereof” (AJINOMOTO CO., INC., priority 2014, dated 2016).
Residues, ends and D or L forms follow the SMILES beside them.

target: h-mT1R2-471/mT1R3 (UniProt Q8TE23+Q925D8, A537S/A564V/A568V/A570T/A649T/A658V/A782V/D480N/E530V/E534N/E542M/E548N/F525Y/F665L/G696N/G701T/H484Y/H528R/I481V/I486P/I490V/I510L/I518V/I595M/I643V/I645L/I692L/I695G/K476T/K504M/K626T/K714N/L471T/L521P/L571I/L578I/L610P/L631F/L636F/L639V/L688V/L702I/L734M/L800F/M492I/M616G/M682V/M690V/M748V/N477Y/N540G/N541S/N721H/P638T/P824S/Q472E/Q474R/Q479S/Q536L/Q546K/Q555R/Q676H/R473T/R498S/R667S/S501P/S547N/S550A/S628F/S663R/S670G/S681F/S703N/S727G/S784D/S804G/T529S/T549I/T609V/T629S/T642S/T705I/T706G/T716I/V508I/V512P/V557A/V585L/V613L/V617M/V673M/V687A/V691A/V694A/V718L/V741L/V774I/V791M/Y533F/Y615F/Y671F/Y769S/Y783H); settings: Table 4; genes h-mT471/mT3 (h-mT1R2-471, mT1R3); HEK293E cells
Sequence (Q8TE23 with tags, fused parts or gaps with the stated changes limits assumed): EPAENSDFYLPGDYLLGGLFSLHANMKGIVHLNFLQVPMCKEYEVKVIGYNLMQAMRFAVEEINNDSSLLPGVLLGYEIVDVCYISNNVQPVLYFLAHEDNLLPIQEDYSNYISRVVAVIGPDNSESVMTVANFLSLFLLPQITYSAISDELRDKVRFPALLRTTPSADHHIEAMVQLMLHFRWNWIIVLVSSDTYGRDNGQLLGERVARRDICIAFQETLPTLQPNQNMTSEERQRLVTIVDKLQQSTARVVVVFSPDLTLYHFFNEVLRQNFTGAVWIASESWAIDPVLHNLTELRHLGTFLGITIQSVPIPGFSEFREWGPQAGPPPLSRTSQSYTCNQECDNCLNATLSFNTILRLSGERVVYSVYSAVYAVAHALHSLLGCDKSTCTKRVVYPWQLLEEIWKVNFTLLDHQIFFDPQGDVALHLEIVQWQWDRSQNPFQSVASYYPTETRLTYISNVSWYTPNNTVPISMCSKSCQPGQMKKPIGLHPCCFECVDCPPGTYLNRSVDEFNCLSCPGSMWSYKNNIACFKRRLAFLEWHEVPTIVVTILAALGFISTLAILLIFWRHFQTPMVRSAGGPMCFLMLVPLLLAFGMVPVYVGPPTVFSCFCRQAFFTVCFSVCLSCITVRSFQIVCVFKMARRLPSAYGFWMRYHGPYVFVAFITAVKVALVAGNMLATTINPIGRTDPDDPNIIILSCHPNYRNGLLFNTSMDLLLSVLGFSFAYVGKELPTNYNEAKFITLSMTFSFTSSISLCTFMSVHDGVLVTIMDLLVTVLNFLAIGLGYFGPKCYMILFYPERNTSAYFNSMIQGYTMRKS
Sequence (Q925D8 21-858, stated change not applied): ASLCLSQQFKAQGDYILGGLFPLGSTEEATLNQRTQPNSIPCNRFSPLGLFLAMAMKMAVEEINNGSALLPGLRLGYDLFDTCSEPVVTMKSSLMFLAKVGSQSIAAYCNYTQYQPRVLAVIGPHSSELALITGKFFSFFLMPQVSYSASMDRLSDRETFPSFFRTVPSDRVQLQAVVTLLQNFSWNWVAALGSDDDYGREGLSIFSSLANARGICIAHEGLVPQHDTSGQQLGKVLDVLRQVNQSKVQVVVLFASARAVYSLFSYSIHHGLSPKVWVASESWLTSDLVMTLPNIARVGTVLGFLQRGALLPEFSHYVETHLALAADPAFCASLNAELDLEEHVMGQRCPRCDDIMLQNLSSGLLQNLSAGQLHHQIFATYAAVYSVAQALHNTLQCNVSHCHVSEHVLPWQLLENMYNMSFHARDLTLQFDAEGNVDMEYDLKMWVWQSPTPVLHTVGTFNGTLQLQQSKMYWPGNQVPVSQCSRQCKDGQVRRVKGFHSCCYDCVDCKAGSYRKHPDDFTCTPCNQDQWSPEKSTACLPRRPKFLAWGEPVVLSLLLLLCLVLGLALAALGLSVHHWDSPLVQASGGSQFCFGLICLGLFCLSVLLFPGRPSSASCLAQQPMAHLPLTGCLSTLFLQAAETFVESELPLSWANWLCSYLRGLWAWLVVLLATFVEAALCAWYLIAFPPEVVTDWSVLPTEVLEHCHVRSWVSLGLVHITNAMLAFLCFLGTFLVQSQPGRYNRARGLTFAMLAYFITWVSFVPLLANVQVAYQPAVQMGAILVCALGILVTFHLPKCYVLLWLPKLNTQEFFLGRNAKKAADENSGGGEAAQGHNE

Row | Compound | S/N
1 | OC[C@H]1O[C@H](O[C@]2(CCl)O[C@H](CCl)[C@@H](O)[C@@H]2O)[C@H](O)[C@@H](O)[C@H]1Cl [Sucralose, sucralose] | 4.6
2 | C[C@H](NC(=Nc1ccc(C#N)cc1)NCC(=O)O)c1ccccc1 [SC-45647, [3-[(S)-1-phenylethyl]-2-(4-cyanophenyl)guanidino]acetic acid] | 4.2
3 | COC(=O)[C@H](Cc1ccccc1)NC(=O)[C@H](CC(=O)O)NCCCc1ccc(OC)c(O)c1 [Advantame, advantame] | 5.5
4 | COC(=O)[C@H](Cc1ccccc1)NC(=O)[C@H](CC(=O)O)NCCC(C)(C)C [Neotame, neotame] | 4.4
5 | COC(=O)[C@H](Cc1ccccc1)NC(=O)[C@@H](N)CC(=O)O [Aspartame, aspartame] (HELM PEPTIDE1{D.F.[CO[*:1]]}$$$$V2.0) | 4.6
6 | OC[C@H]1O[C@@](CO)(O[C@H]2O[C@H](CO)[C@@H](O)[C@H](O)[C@H]2O)[C@@H](O)[C@@H]1O [Sucrose, sucrose] | 3.5
7 | CC1=CC(=O)NS(=O)(=O)O1 [Acesulfame K, acesulfame potassium] | 3.1
8 | O=C1NS(=O)(=O)c2ccccc21.[Na] [Saccharin Na, sodium saccharin] | 3.6
